Reference: patent US5223411A, “Nonionic surfactants having a carbamoyl group and process for treatment of a proteins containing medium using the same” (Centre National de la Recherche Scientifique (CNRS), priority 1990, dated 1993)
“And” between values parts separate entries of the source, which are not always exact repeats. Identical values can stand only once. Like-named read-outs stand apart in the source and are kept apart here.

Legend:
[1] = Solubility in water, usual buffers and organic solvents; assay type: physicochemical
[2] = Stability of HECAMEG solutions; assay type: physicochemical; settings: 4° C.
[3] = CMC, iodine method of Ross and Olivier; assay type: physicochemical; settings: iodine spectrophotometric assay
Description: (§1) The CMC of HECAMEG was colorimetrically determined with the iodine method of Ross and Olivier and the Coomassie blue G method of Rosenthal and Koussaie and spectrofluorometrically with the technique of Vendittis et al. In the latter case, excitation was performed at 370 nm and emission recorded at 490 nm.
(§2) The CMC of the detergent was estimated by three distinct spectrophotometric methods of OG (n-octylα-D glucopyranoside) was used for comparison. The iodine spectrophotometric assay indicated a CMC of 17 mM while values of 14.5 and 15 mM were obtained with Coomassie blue G, and 19.5 mM was obtained by spectrofluorometry at 4° and 20° C. The second method was not reliable with OG, while the two other methods indicated for this surfactant, as expected, a CMC of 25 mM.

[4] = CMC, Coomassie blue G method of Rosenthal and Koussaie; assay type: physicochemical
Description: as §1, §2

[5] = CMC, spectrofluorometry (technique of Vendittis et al.); assay type: physicochemical; settings: for CMC: spectrofluorometry at 4° and 20° C.
Description: as §1, §2

[6] = Detergent dialysis (Lipoprep apparatus); assay type: physicochemical; settings: 30 mM in 50 mM Na phosphate pH 7.4, 5 kDa cutoff membranes, 25° C.
Description: Dialysis experiments with HECAMEG were performed with the Lipoprep apparatus using a three-compartment Teflon cell with two cellulose dialysis membranes (molecular mass cutoff 5 kDa). The central compartment was filled with 8 ml of 30 mM HECAMEG in 50 mM Na phosphate buffer, pH 7.4. The same buffer, but without detergent circulated through the two side compartment for 24 h at 25° C. Dialysis speed was estimated by measuring HECAMEG concentration within the central cell.
The dialyzability of HECAMEG was estimated by the use of the Lipoprep dialysis system under conditions corresponding to those used for the preparation of liposomes. […] Indeed, the concentration of HECAMEG in the central compartment of the cell dropped by 50% upon 3 h of dialysis and the surfactant was no longer detected after about 18 h.

[7] = target: T1, bacteriorhodopsin from the purple membrane of H. halobium (Halobacterium salinarum, UniProt P02945); test: Membrane protein extraction with detergents, purple membrane
T1 construct: The untrated (native) purple membrane of H. halobium; endogenous in cells; host or cells: Halobacterium halobium R1, purified purple membrane
T1 sequence (P02945 14-262): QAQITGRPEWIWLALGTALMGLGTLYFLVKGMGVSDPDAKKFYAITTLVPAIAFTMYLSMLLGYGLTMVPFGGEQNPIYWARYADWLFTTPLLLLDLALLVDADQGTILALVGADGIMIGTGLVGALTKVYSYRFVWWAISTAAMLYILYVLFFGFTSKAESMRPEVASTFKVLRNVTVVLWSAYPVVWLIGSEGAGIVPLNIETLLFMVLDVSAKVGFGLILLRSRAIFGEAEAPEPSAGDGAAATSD
Description: Spiroplasma melliferum B88 was cultivated and membranes were purified as described. The purple membrane of Halobium R1 was purified according to Oesterhelt and Stoeckenius (22). Pasteurella multocida was cultivated in liquid medium containing per liter 20 g of Tryptose (Difco), 1 g of glucose, 5 g of NaCl, and 2,5 g of yeast extract (Difco), pH 7.4. The cells were harvested by centrifugation and disrupted with a French press. Plasma membranes were isolated according the technique of Osborn and Munson.
In order to extract membrane proteins, 200 μl of a membrane suspension in 0.1 M Na phosphate buffer (pH 7.4) was mixed with 200 μl of detergent dissolved in water. After 90 min at room temperature, the mixture was centrifuged at 260,000 g for 15 min at 20° C. (Beckman TL-100 ultracentrifuge, TL A 100.1 rotor). The supernatant was recovered for further analysis, while the pellet was dispersed in 400 μl of 2% SDS in 50 mM Tris-HCl buffer (pH 8.0). After 60 min at room temperature, the mixture was centrifuged as above and the supernatant recovered for analysis.
It was possible to extract up to 75% of bacteriorhodopsin from the purple membrane and 40% of protein from the spiroplasmal membrane with 75 mM HECAMEG. This corresponds respectively to ratios of 9 and 26 ug of protein/μmol of detergent. The efficacy of the extraction was not improved by increasing the detergent concentration. […]

[8] = target: T2, spiralin, the main protein of the S. melliferum membrane (Spiroplasma melliferum, UniProt P21625)
T2 construct: Spiroplasma melliferum B88 was cultivated and membranes were purified as described; endogenous in cells; host or cells: Spiroplasma melliferum B88, purified membranes
T2 sequence (P21625 24-242): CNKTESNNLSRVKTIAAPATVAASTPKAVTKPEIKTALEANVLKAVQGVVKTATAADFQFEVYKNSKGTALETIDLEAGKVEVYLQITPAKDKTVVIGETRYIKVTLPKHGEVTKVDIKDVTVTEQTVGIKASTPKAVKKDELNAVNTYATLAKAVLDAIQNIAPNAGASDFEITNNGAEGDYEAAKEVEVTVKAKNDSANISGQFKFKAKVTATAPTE
Description: Since the membrane of melliferum has a complex protein composition, the protein extracted by HECAMEG was analyzed by SDS PAGE. Separation of polypeptides was performed in 100×100×4 mm gels in 40 mM Tris-20 mM Na acetate buffer (pH 7.4) containing 2 mM EDTA and 0.1% SDS. The upper gel contained 4.83% acrylamide and 0.17% bisacrylamide while the lower separating gel contained 7.72% acrylamide and 0.28% bisacrylamide. The samples contained 2% SDS and 0.12 M 2 mercaptoethanol and were heated at 60° C. for 5 min prior to electrophoresis. Bromphenol blue was used as the tracking dye. Protein bands were stained with Coomassie blue R-250 in an acetic acid/methanol/water mixture (1/4/5,v/v). […] Optimal selectivity was obtained with surfactant concentration in the 60 to 65 mM range.

spiralin = target: T3, spiralin (Spiroplasma melliferum, UniProt P21625); settings: crossed immunoelectrophoresis, rabbit antibodies against S. melliferum membrane
T3 construct: Spiroplasma melliferum B88 was cultivated and membranes were purified as described; endogenous in cells; host or cells: Spiroplasma melliferum B88, purified membranes
T3 sequence (P21625 24-242): as above
Description: Antibodies directed against the S. melliferum membrane were prepared in rabbits as described. The hyperimmune sera were filtered through 0.45-μm-pore membranes and stored at -25° C. Crossed immunoelectrophoresis was performed according to the method of Laurell in 1% agarose gel in veronal buffer, pH 8.6 (I=0.03). After unprecipitaded proteins where eluted and gels were dried, immunoprecipitates were stained with Coomassie blue R-250.

bacteriorhodopsin = target: T4, bacteriorhodopsin (Halobacterium salinarum, UniProt P02945); test: Absorbance spectrum of bacteriorhodopsin; set-up: species or system H. halobium; settings: native 558 nm
T4 construct: The untrated (native) purple membrane of H. halobium; endogenous in cells; host or cells: Halobacterium halobium R1, purified purple membrane
T4 sequence (P02945 14-262): T1 sequence (P02945 14-262)
Description: Absorbance of dark-adapted bacteriorhodopsin was recorded between 350 and 700 nm. […] When the membrane was solubilized with 1% SDS, leading to the extensive denaturation of bacteriorhodopsin, the absorbance at 558 nm was lost to the benefit of a new maximum at 390 nm, corresponding to free retinal dissolved in SDS. These two spectra were thus representative, respectively, of the native and denatured forms of bacteriorhodopsin. Upon extraction with HECAMEG, the absorption spectrum of the protein was similar to that of the native state protein with, however, a slight blue shift in the absorption maximum (λmax=550 nm). Some absorption was also recorded at 390 nm, but it was much lower than that in SDS, even when HECAMEG was used at concentrations up to 0.1 M. Because of the scatering of light by membrane particles, the 390-nm peak could not be observed in untreated samples.

[9] = tested on: P. multocida succinate dehydrogenase; test: Enzyme assay, succinate dehydrogenase; assay type: biochemical, Pasteurella multocida; settings: for Km: read-out: Km ± SD
Description: (§3) P. multocida succinate dehydrogenase was assayed as described by Osborn et al in […] Na phosphate buffer (pH 7.4) containing 10 mM KCN, Na succinate (concentration range: 0.25 to 25 mM), 30 ug of thiazolyl blue, and 10 μg of phenazine methosulfate per milliliter. The samples contained 25, 50, or 100 μg of plasma membrane protein per milliliter and the absorbance at 550 nm was recorded for 10 min at 25° C.P. multocida NADH oxidase was assayed in 50 mM Tris-HCl buffer (pH 8.0) containing 0.2 mM dithiothreitol and 0.12 mM NADH. The samples contained 50,75, or 100 μg of plasma membrane protein per milliliter and the absorbance at 340 nm was recorded as above. The activity of the soluble form of Escherichia coli β-lactamase was measured by using Nitrocefin as substrate and by monitoring the rate of increase in the absorbance at 488 nm for 3 min at 25° C. One milliliter of 20 mM Na phosphate buffer (pH 7.4) contained Nitrocefin (concentration range: 5 to 20 uM) and 0.76 ug (i.e., 2×10^-3 units) of β-lactamase.
(§4) The four enzyme activities were measured in the absence of surfactants and in the presence of 3 or 30 mM HECAMEG. Controls were also performed with 35 mM SDS. Km and V max were determined from Lineweaver-Burk plots, each point being the average of three estimations.

[10] = tested on: P. multocida NADH oxidase; test: Enzyme assay, NADH oxidase; assay type: biochemical, Pasteurella multocida; settings: for Km: read-out: Km ± SD
Description: as §3, §4

[11] = tested on: Escherichia coli β-lactamase; test: Enzyme assay, β-lactamase (Nitrocefin substrate); assay type: biochemical; settings: for Km: read-out: Km ± SD
Description: as §3, §4

[12] = target: T5, Bovine milk lactoperoxidase (Bos taurus, UniProt P80025); test: Enzyme assay, lactoperoxidase (o-dianisidine substrate); assay type: biochemical
T5 construct: from tissue; host or cells: bovine milk
Description: Bovine milk lactoperoxidase was assayed according to George except that o-dianisidine was used as the substrate instead of gaiacol. One milliliter of 20 mM Na phosphate buffer (pH 7.4) contained […] (concentration range: 0.06 to 0.9 mM) 1 mM o-dianisidine, and 25×10^-3 μg (i.e., 1.15×10^-3 units) of lactoper oxidase. The absorbance at 435 nm was recorded as for β-lactamase.
as §4

[13] = stated for comparison; cited from earlier work

CCCCCCCNC(=O)OC[C@H]1O[C@H](OC)[C@H](O)[C@@H](O)[C@@H]1O [HECAMEG, 6-0 (N-Heptylcarbamoyl) methyl α-D-glucopyranoside]
solubility in water ([1]; even at 0° C.): high solubility
solubility ([1]; usual buffers, in currant buffers, at 4° C., read-out: solubility): > 60 mg/mL
solubility ([1]; water, Tris-HCl and phosphate buffers, even at 0° C., read-out: solubility in water and usual buffers): ≥ 200000 µM
solubility in water and organic solvents ([1]; water, alcohols, methylene chloride, tetrahydrofuranne, DMSO): very soluble
stability of solutions [2]: stable for several weeks
CMC [3]: 17 mM
CMC [4]: 14.5 mM and 15 mM
CMC [5]: 19.5 mM
critical micellar concentration (CMC) ([5]; summary value, method not named at the place): 19.5 mM and 6.5 g/l
dialysis time after which surfactant was no longer detected [6]: about 18 h
drop of concentration in the central compartment ([6]; upon 3 h of dialysis): 50%
ratio protein extracted per detergent ([7]; 75 mM HECAMEG, purple membrane): 9 ug of protein/μmol of detergent
membrane protein extraction below the CMC ([7]; concentrations below the CMC): inefficient
polypeptides extracted (including spiralin) of 28 detected in the membrane ([8]; 60 to 65 mM surfactant): 12
solubilization of the fibril protein ([8]; S. melliferum membrane): not able to solubilize the fibril protein
antigenicity of spiralin after solubilization (spiralin): remained highly antigenic
absorption maximum (λmax) of bacteriorhodopsin (bacteriorhodopsin; upon extraction with HECAMEG): 550 nm
inhibition of enzyme by the surfactant [9]: not inhibited
Vmax ± SD ([9]; HECAMEG 0.1%, 3 mM): 163 ± 41 µmol/min
Km ([9]; HECAMEG 0.1%, 3 mM): 947 ± 52 µM
Vmax ± SD ([9]; HECAMEG 1%, 30 mM): 357 µmol/min and 357 ± 50 µmol/min
Km ([9]; HECAMEG 1%, 30 mM): 901 ± 65 µM
effect on Km and Vmax below the CMC ([9]; below the CMC): neither Km nor Vmax was significantly modified
inhibition of enzyme by the surfactant [10]: not inhibited
Vmax ± SD ([10]; HECAMEG 0.1%, 3 mM): 4.0 ± 0.5 µmol/min
Km ([10]; HECAMEG 0.1%, 3 mM): 12.5 ± 1.2 µM
Vmax ± SD ([10]; HECAMEG 1%, 30 mM): 10.3 ± 1.2 µmol/min and 10.3 µmol/min
Km ([10]; HECAMEG 1%, 30 mM): 3.3 ± 0.6 µM
change of affinity of the enzyme for its substrate ([10]; above the CMC (30 mM)): increased fourfold
effect on Km and Vmax below the CMC ([10]; below the CMC): neither Km nor Vmax was significantly modified
change of Vmax ([11]; 30 mM surfactant): decreased threefold
Vmax ± SD ([11]; HECAMEG 0.1%, 3 mM): 143 ± 16.5 µmol/min
Km ([11]; HECAMEG 0.1%, 3 mM): 62 ± 10 µM
Vmax ± SD ([11]; HECAMEG 1%, 30 mM): 30.5 ± 0.4 µmol/min
Km ([11]; HECAMEG 1%, 30 mM): 18.1 ± 0.6 µM
enzyme activity above the CMC ([11]; above the CMC): decreased
effect on enzyme below the CMC ([11]; below the CMC): apparent activation
change of Vmax ([12]; 30 mM surfactant): increased about threefold
Vmax ± SD ([12]; HECAMEG 0.1%, 3 mM): (609 ± 30) × 10^-3 μmol/min
Vmax ± SD ([12]; HECAMEG 1%, 30 mM): (1238 ± 4) × 10^-3 μmol/min
enzyme activity above the CMC ([12]; above the CMC): increased
effect on enzyme below the CMC ([12]; below the CMC): apparent activation

CCCCCCCCO[C@H]1O[C@H](CO)[C@@H](O)[C@H](O)[C@H]1O [OG, n-octylα-D glucopyranoside, reference compound]
CMC [3]: 25 mM
CMC [5]: 25 mM
CMC of comparison surfactants [13]: 25 mM

CCCCCCCCCCCCOS(=O)(=O)[O-].[Na+] [SDS, sodium dodecyl sulfate, reference compound]
absorption maximum of bacteriorhodopsin preparation (bacteriorhodopsin; membrane solubilized with 1% SDS): 390 nm
enzyme activity upon treatment with SDS ([9]; 35 mM SDS): completely inhibited
enzyme activity upon treatment with SDS ([10]; 35 mM SDS): completely inhibited
enzyme activity with SDS ([11]; 35 mM SDS): fully inhibited
enzyme activity with SDS ([12]; 35 mM SDS): fully inhibited
